This is an account of results in PMC12320245 (International Journal of Biological Sciences, 2025).

Assay [1] deals with cultured cortical astrocytes. Kind of assay: Intracellular cAMP levels in cultured astrocytes. The settings on record: 1-hour treatment, 0.1 to 10 µM, particularly at 1 μM and 10 μM. The format is cell-based. For orientation: cAMP levels reflect the balance of adenylyl cyclase and phosphodiesterase activity.
Assay [2] has as its system hippocampus of TBI rats. As to the kind of experiment: Controlled cortical impact TBI: NeuN immunohistochemistry. The format is in vivo, rat. Particulars: CA1, CA3, GCL, hilus, 2 weeks post-TBI, vs TBI-vehicle. The protocol:
(§1) This study used male Sprague-Dawley rats weighing 300-350 g and aged 8 weeks, obtained from DBL Co. (Chungcheongbuk-do, Republic of Korea). The rats were housed in a controlled environment with a temperature of 20 ± 2 °C, a relative humidity of 55 ± 5%, and a 12-hour light/dark cycle. They were provided ad libitum access to food and water. To minimize stress associated with transportation, animals underwent a one-week acclimatization period before the start of the experiments. All experimental procedures were conducted in compliance with the guidelines of the National Institutes of Health for the care and use of laboratory animals and were approved by the Hallym University Institutional Animal Care and Use Committee (protocol # Hallym 2022-23, approved on July 15, 2022). This manuscript follows the principles outlined in the Animal research: reporting in vivo experiments (ARRIVE) guidelines.
(§2) A controlled cortical impact (CCI) model was used to induce TBI in rats. Animals were anesthetized with 1-1.5% isoflurane in a 30:70 oxygen-to-nitrous oxide mixture and securely positioned in a stereotaxic frame. A 3 mm craniotomy was performed using a portable drill at a site 2.8 mm lateral to the midline and 3.0 mm posterior to Bregma. […]

Assay [3] concerns ipsilateral hippocampus of TBI rats. As to the kind of experiment: Controlled cortical impact TBI: IgG extravasation (BBB integrity). In kind it is in vivo, rat. The settings on record: 24 hours and 2 weeks post-TBI. On the procedure: as §1, §2
The test system of assay [4] is primary hippocampal neurons. As to the kind of experiment: Scratch injury: p-PKA analysis. The format is cell-based, rat. The settings on record: 10 μM AMX immediately after scratch, 6 hours post-injury. On the procedure:
Primary hippocampal neurons were obtained from embryonic day 18 (E18) Sprague-Dawley rat embryos. Pregnant rats were anesthetized using 2-3% isoflurane in a gas mixture of 70% nitrous oxide and 30% oxygen. Following euthanasia, the hippocampi were carefully dissected, minced, and enzymatically dissociated using TrypLE Express (Gibco, NY, USA) for 10 minutes at 37°C. The tissue was further mechanically dissociated using fire-polished glass pipettes, and the resulting cell suspension was filtered through a 70 μm cell strainer to remove debris. Neurons were seeded at a density of 3 × 10^5 cells per well in 24-well plates pre-coated with poly-L-lysine (Sigma-Aldrich, Saint Louis, MO, USA). […]
A scratch injury model was used to mimic TBI in vitro. […] After the treatment period, neuronal damage and recovery were assessed using appropriate evaluation methods.
Six hours after the scratch assay, cellular activity was terminated by replacing the culture medium with 0.1 M HCl. Cell lysates were then collected and analyzed for PKA activity using a commercial PKA kinase activity assay kit (Abcam, ab139435), following the manufacturer's protocol. […] Substrate phosphorylation was detected using a phospho-specific primary antibody and an HRP-conjugated secondary antibody. […] PKA activity was quantified as optical density (OD) values and expressed relative to control samples.

For assay [5], the system named is hippocampus of TBI rats. Kind of assay: Controlled cortical impact TBI: Fluoro-Jade B neuronal death. In kind it is in vivo, rat. Particulars: ipsilateral CA1, CA3, GCL, hilus, 24 hours post-TBI, vs TBI-vehicle. On the procedure:
as §1
A controlled cortical impact (CCI) model was used to induce TBI in rats. […]
Neuronal death was assessed 24 hours after TBI via Fluoro-Jade B (FJB) staining, a method designed for detecting degenerating neurons. […] FJB-positive cells were quantified in hippocampal subregions, including CA1 (Cornu Ammonis 1), CA3 (Cornu Ammonis 3), GCL (granule cell layer), and the hilus.

“Also recorded” adds a separate entry of the source.

Take `CC(C)c1ccc2oc3nc(N)c(C(=O)O)cc3c(=O)c2c1` [AMX, amlexanox]: the “intracellular cAMP levels” value in assay [1] is “significantly increased intracellular cAMP levels”. The NeuN-positive cell counts entry in the assay on hippocampus of TBI rats [2] is given as “higher NeuN-positive cell counts”. In addition, in assay [3], the “IgG extravasation (BBB integrity)” value is given as “reduces this leakage; also recorded: significantly reduced IgG extravasation”. Moreover, the “p-PKA levels after scratch injury (ELISA)” value in assay [4] is “restored cAMP and p-PKA levels”. For the same compound, the “number of FJB-positive degenerating neurons” value in the assay on hippocampus of TBI rats [5] was “significantly reduced the number of FJB-positive degenerating neurons”.
